Source: ChEMBL document CHEMBL6114943, “Engineered Cyclotide Blocks Neuronal Excitotoxicity” (J Med Chem, 2025)
Active and inactive are the calls of the source. The rule behind the calls is not given here. Where a SMILES comes first, the peptide text is derived from it. Bridges are numbered along the chain shown (N, C = ends).

Key:
[1] = Stability in C57BL/6 mouse plasma assessed as half life at 100 uM incubated for 300 min by HPLC analysis; format: ADME, cell-free
[2] = Stability in C57BL/6 mouse plasma assessed as parent compound remaining at 100 uM measured after 5 hrs by HPLC analysis relative to control; format: ADME, cell-free; details: read-out: Stability
[3] = Stability in C57BL/6 mouse plasma assessed as drug degradation at 100 uM measured < 15 mins in presence of alteplase by HPLC analysis; format: ADME, cell-free; details: 0.25 h
[4] = Stability in C57BL/6 mouse plasma assessed as parent compound remaining at 100 uM measured after 24 hrs by HPLC analysis; format: ADME, cell-free; details: read-out: Stability
[5] = Stability in C57BL/6 mouse plasma assessed as drug degradation by measuring parent compound remaining at 100 uM measured after 5 hrs by HPLC analysis relative to control; format: ADME, cell-free; details: read-out: Stability
[6] = Stability in C57BL/6 mouse plasma assessed as drug degradation by measuring parent compound remaining at 100 uM measured after 5 hrs in presence of alteplase by HPLC analysis relative to control; format: ADME, cell-free; details: read-out: Stability
[7] = Stability in C57BL/6 mouse plasma assessed as parent compound remaining at 100 uM measured after 24 hrs in presence of alteplase by HPLC analysis relative to control; format: ADME, cell-free; details: read-out: Stability
[8] = Stability in C57BL/6 mouse plasma assessed as drug degradation at 100 uM measured after 5 hrs in presence of alteplase by HPLC analysis; format: ADME, cell-free
[9] = tested on: Neuron; test: Neuroprotective activity against NMDA-induced cell death in mouse primary neuron assessed as reduction in cell viability preincubated with compound for 1 hrs followed by NMDA addition and measured after 1 hrs by PI staining based analysis relative to control; format: functional; details: time 2.0 hrs
[10] = tested on: Mus musculus; test: Neuroprotective activity against pilocarpine-induced seizure in C57BL6 mouse assessed as survival rate at 3 nmol/g, iv pretreated with compound for 1 hrs followed by pilocarpine induction and measured after 2 hrs relative to control; format: functional; details: time 3 hrs
[11] = tested on: Neuron; test: Cytotoxicity against mouse primary neuron upto 1 uM incubated for 24 hrs; format: toxicity, cell-based
[12] = Drug uptake in mouse Primary neuron at 100 nM incubated for 60 mins by inverted confocal microscopic analysis relative to control; format: ADME, cell-based; details: 1 h, 0.1 µM
[13] = Drug uptake in mouse Primary neuron at 500 nM incubated for 60 mins by inverted confocal microscopic analysis relative to control; format: ADME, cell-based; details: 1 h, 0.5 µM
[14] = Drug uptake in mouse Primary neuron at 100 nM measured at 60 mins by inverted confocal microscopic analysis; format: ADME, cell-based; details: 1 h, 0.1 µM
[15] = tested on: Neuron; test: Neuroprotective activity against Amyloid beta-induced cell death in mouse primary neuron assessed as cell viability preincubated with compound for 1 hrs followed by Amyloid beta addition and measured after 1 hrs by PI staining based analysis relative to control; format: functional; details: time 2 hrs
[16] = tested on: Neuron; test: Neuroprotective activity against NMDA-induced cell death in mouse primary neuron assessed as cell viability preincubated with compound for 1 hrs followed by NMDA addition and measured after 1 hrs by PI staining based analysis relative to control; format: functional; details: time 2 hrs
[17] = target: Disks large homolog 4 (Homo sapiens, UniProt P78352); test: Binding affinity to PSD-95 (unknown origin) assessed as binding constant (Kd) by MST analysis
Disks large homolog 4, sequence (P78352 whole entry): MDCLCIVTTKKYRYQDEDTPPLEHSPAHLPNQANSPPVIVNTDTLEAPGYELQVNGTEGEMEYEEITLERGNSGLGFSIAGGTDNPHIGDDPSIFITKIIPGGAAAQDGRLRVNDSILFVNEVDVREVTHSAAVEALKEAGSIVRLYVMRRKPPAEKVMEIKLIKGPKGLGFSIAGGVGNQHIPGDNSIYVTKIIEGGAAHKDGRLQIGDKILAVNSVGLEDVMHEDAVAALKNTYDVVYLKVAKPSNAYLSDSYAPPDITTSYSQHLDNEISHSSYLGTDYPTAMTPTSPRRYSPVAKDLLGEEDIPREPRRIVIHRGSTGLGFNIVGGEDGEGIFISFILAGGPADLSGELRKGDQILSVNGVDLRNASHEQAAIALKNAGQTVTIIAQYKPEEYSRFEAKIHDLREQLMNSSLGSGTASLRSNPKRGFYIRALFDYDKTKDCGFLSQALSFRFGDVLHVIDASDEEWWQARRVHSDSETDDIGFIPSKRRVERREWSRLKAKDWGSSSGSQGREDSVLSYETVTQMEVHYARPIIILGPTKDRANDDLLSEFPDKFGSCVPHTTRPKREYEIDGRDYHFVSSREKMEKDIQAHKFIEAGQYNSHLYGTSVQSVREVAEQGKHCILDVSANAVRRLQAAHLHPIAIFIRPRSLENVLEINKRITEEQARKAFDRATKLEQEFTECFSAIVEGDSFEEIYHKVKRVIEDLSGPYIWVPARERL

[18] = Toxicity in C57BL/6 mouse assessed as histological changes in kidney at 3 nmol/g, iv administered 3 consecutive days by H and E staining based analysis; format: organism-based; details: in vivo
[19] = Toxicity in C57BL/6 mouse assessed as histological changes in liver at 3 nmol/g, iv administered 3 consecutive days by H and E staining based analysis; format: organism-based; details: in vivo
[20] = Toxicity in C57BL/6 mouse assessed as histological changes in lung at 3 nmol/g, iv administered 3 consecutive days by H and E staining based analysis; format: organism-based; details: in vivo
[21] = Toxicity in C57BL/6 mouse assessed as histological changes in spleen at 3 nmol/g, iv administered 3 consecutive days by H and E staining based analysis; format: organism-based; details: in vivo
[22] = tested on: Neuron; test: Neuroprotective activity against Amyloid beta-induced cell death in mouse primary neuron assessed as cell viability at 100 nM preincubated with compound for 1 hrs followed by Amyloid beta addition and measured after 1 hrs by PI staining based analysis; format: functional; details: time 2.0 hrs
[23] = tested on: Mus musculus; test: Neuroprotective activity against pilocarpine-induced seizure in C57BL6 mouse assessed as survival rate at 30 nmol/g, po pretreated with compound for 1 hrs followed by pilocarpine induction and measured after 2 hrs relative to control; format: functional; details: time 3 hrs
[24] = tested on: Neuron; test: Neuroprotective activity against NMDA-induced cell death in mouse primary neuron assessed as reduction in cell viability at 100 nM preincubated with compound for 1 hrs followed by NMDA addition and measured after 1 hrs by PI staining based analysis (reference value: 60.01 +/- 4%); format: functional; details: time 2 hrs

## CC[C@H](C)[C@H](NC(=O)[C@H](CO)NC(=O)[C@H](CO)NC(=O)[C@H](CC(C)C)NC(=O)[C@H](CCCCN)NC(=O)[C@H](CCCNC(=N)N)NC(=O)[C@H](CCCNC(=N)N)NC(=O)[C@H](CCCNC(=N)N)NC(=O)[C@H](CCC(N)=O)NC(=O)[C@H](CCCNC(=N)N)NC(=O)[C@H](CCCNC(=N)N)NC(=O)[C@H](CCCCN)NC(=O)[C@H](CCCCN)NC(=O)[C@H](CCCNC(=N)N)NC(=O)CNC(=O)[C@H](Cc1ccc(O)cc1)NC(=O)c1ccc(C(=O)[O-])cc1-c1c2ccc(=[N+](C)C)cc-2oc2cc(N(C)C)ccc12)C(=O)N[C@@H](CCC(=O)O)C(=O)N[C@@H](CO)C(=O)N[C@@H](CC(=O)O)C(=O)N[C@H](C(=O)O)C(C)C
[1]
  half-life at 100 µM: ~45 min
[2]
  remaining at 5 h, 100 µM: 9%
[3]
  Stability: Unstable

## CC[C@@H](C)[C@@H](NC(=O)[C@@H](CO)NC(=O)[C@@H](CO)NC(=O)[C@@H](CC(C)C)NC(=O)[C@@H](CCCCN)NC(=O)[C@@H](CCCNC(=N)N)NC(=O)[C@@H](CCCNC(=N)N)NC(=O)[C@@H](CCCNC(=N)N)NC(=O)[C@@H](CCC(N)=O)NC(=O)[C@@H](CCCNC(=N)N)NC(=O)[C@@H](CCCNC(=N)N)NC(=O)[C@@H](CCCCN)NC(=O)[C@@H](CCCCN)NC(=O)[C@@H](CCCNC(=N)N)NC(=O)CNC(=O)[C@@H](Cc1ccc(O)cc1)NC(=O)c1ccc(C(=O)[O-])cc1-c1c2ccc(=[N+](C)C)cc-2oc2cc(N(C)C)ccc12)C(=O)N[C@H](CCC(=O)O)C(=O)N[C@H](CO)C(=O)N[C@H](CC(=O)O)C(=O)N[C@@H](C(=O)O)C(C)C
[4]
  remaining at 24 h, 100 µM: 80%
[5]
  remaining at 5 h, 100 µM: 85%
[6]
  remaining at 5 h, 100 µM: 82%
[7]
  remaining at 24 h, 100 µM: 80%
[8]
  Stability: Unstable

## CC[C@H](C)[C@@H]1NC(=O)[C@H](CO)NC(=O)[C@H](CO)NC(=O)[C@H](CC(C)C)NC(=O)[C@H](CCCCN)NC(=O)[C@@H]2CSSC[C@@H]3NC(=O)[C@H](CC(=O)O)NC(=O)[C@H](CO)NC(=O)[C@H](CC(=O)O)NC(=O)[C@H](CCCNC(=N)N)NC(=O)[C@H](CCCNC(=N)N)NC(=O)[C@@H]4CSSC[C@H](NC(=O)[C@H]([C@@H](C)CC)NC(=O)[C@H](CSSC[C@H](NC(=O)[C@H](C)NC(=O)[C@H](CC(=O)O)NC(=O)[C@H](C)NC(=O)[C@H](CCC(=O)O)NC1=O)C(=O)N1CCC[C@H]1C(=O)N[C@@H](CCCNC(=N)N)C(=O)N[C@@H]([C@@H](C)CC)C(=O)N[C@@H](CC(C)C)C(=O)N[C@@H](CCCNC(=N)N)C(=O)N[C@@H](CCCNC(=N)N)C(=O)N[C@@H](CCCNC(=N)N)C(=O)N[C@@H](CCCNC(=N)N)C(=O)N4)NC(=O)[C@H](C)NC(=O)CNC(=O)[C@@H]1CCCN1C3=O)C(=O)N[C@@H](CCCNC(=N)N)C(=O)NCC(=O)N[C@@H](CC(N)=O)C(=O)NCC(=O)N[C@@H](Cc1ccc(O)cc1)C(=O)N2 (cyclo(ACICRGNGYCKLSSIEADACPRILRRRRCRRDSDCPG); disulfide 2-20, 4-29, 10-35)
[9]
  Activity: inactive
[10]
  Survival: 30%
[11]
  Activity: Non-toxic

## CC[C@H](C)[C@@H]1NC(=O)[C@@H]2CSSC[C@@H]3NC(=O)[C@H](C(C)C)NC(=O)[C@H](CC(=O)O)NC(=O)[C@H](CO)NC(=O)[C@H](CCC(=O)O)NC(=O)[C@H]([C@@H](C)CC)NC(=O)[C@H](CO)NC(=O)[C@H](CO)NC(=O)[C@H](CC(C)C)NC(=O)[C@H](CCCCN)NC(=O)[C@@H]4CSSC[C@H](NC(=O)[C@H](CC(=O)O)NC(=O)[C@H](CO)NC(=O)[C@H](CC(=O)O)NC(=O)[C@H](CCCNC(=N)N)NC(=O)[C@H](CCCNC(=N)N)NC(=O)[C@H](CSSC[C@H](NC1=O)C(=O)N[C@@H](CCCNC(=N)N)C(=O)NCC(=O)N[C@@H](CC(N)=O)C(=O)NCC(=O)N[C@@H](Cc1ccc(O)cc1)C(=O)N4)NC(=O)[C@H](CCCCN)NC(=O)[C@H](CCCCN)NC(=O)[C@H](CC(C)C)NC(=O)[C@H]([C@@H](C)CC)NC(=O)[C@H](CCCCN)NC(=O)[C@@H]1CCCN1C3=O)C(=O)N1CCC[C@H]1C(=O)NCC(=O)N[C@@H](C)C(=O)N2 (cyclo(ACICRGNGYCKLSSIESDVCPKILKKCRRDSDCPG); disulfide 2-20, 4-27, 10-33) [listing 1 of 2 here]
[11]
  Activity: Non-toxic
[12]
  Drug uptake: Not_active
[13]
  Drug uptake: 70.6%
[14]
  Drug uptake: Active

## CC[C@H](C)[C@@H]1NC(=O)[C@@H]2CSSC[C@@H]3NC(=O)[C@H](C(C)C)NC(=O)[C@H](CC(=O)O)NC(=O)[C@H](CO)NC(=O)[C@H](CCC(=O)O)NC(=O)[C@H]([C@@H](C)CC)NC(=O)[C@H](CO)NC(=O)[C@H](CO)NC(=O)[C@H](CC(C)C)NC(=O)[C@H](CCCCN)NC(=O)[C@@H]4CSSC[C@H](NC(=O)[C@H](CC(=O)O)NC(=O)[C@H](CO)NC(=O)[C@H](CC(=O)O)NC(=O)[C@H](CCCNC(=N)N)NC(=O)[C@H](CCCNC(=N)N)NC(=O)[C@H](CSSC[C@H](NC1=O)C(=O)N[C@@H](CCCNC(=N)N)C(=O)NCC(=O)N[C@@H](CC(N)=O)C(=O)NCC(=O)N[C@@H](Cc1ccc(O)cc1)C(=O)N4)NC(=O)[C@H](CCCCN)NC(=O)[C@H](CCCCN)NC(=O)[C@H](CC(C)C)NC(=O)[C@H]([C@@H](C)CC)NC(=O)[C@H](CCCCN)NC(=O)[C@@H]1CCCN1C3=O)C(=O)N1CCC[C@H]1C(=O)NCC(=O)N[C@@H](C)C(=O)N2 (cyclo(ACICRGNGYCKLSSIESDVCPKILKKCRRDSDCPG); disulfide 2-20, 4-27, 10-33) [listing 2 of 2 here]
[15]
  Activity: 32.6%
[16]
  Activity: 31.8%

## CC[C@H](C)[C@H](NC(=O)[C@H](CO)NC(=O)[C@H](CO)NC(=O)[C@H](CC(C)C)NC(=O)[C@H](CCCCN)NC(=O)[C@H](CCCN=C(N)N)NC(=O)[C@H](CCCN=C(N)N)NC(=O)[C@H](CCCN=C(N)N)NC(=O)[C@H](CCC(N)=O)NC(=O)[C@H](CCCN=C(N)N)NC(=O)[C@H](CCCN=C(N)N)NC(=O)[C@H](CCCCN)NC(=O)[C@H](CCCCN)NC(=O)[C@H](CCCN=C(N)N)NC(=O)CNC(=O)[C@@H](N)Cc1ccc(O)cc1)C(=O)N[C@@H](CCC(=O)O)C(=O)N[C@@H](CO)C(=O)N[C@@H](CC(=O)O)C(=O)N[C@H](C(=O)O)C(C)C [NERINETIDE]
[17]
  Kd: 1200 nM
[18]
  Activity: Non-toxic
[19]
  Activity: Non-toxic
[11]
  Activity: Non-toxic
[20]
  Activity: Non-toxic
[21]
  Activity: Non-toxic

## CC[C@H](C)[C@H](NC(=O)[C@H](CO)NC(=O)[C@H](CO)NC(=O)[C@H](CC(C)C)NC(=O)[C@H](CCCCN)NC(=O)[C@H](CCCNC(=N)N)NC(=O)[C@H](CCCNC(=N)N)NC(=O)[C@H](CCCNC(=N)N)NC(=O)[C@H](CCC(N)=O)NC(=O)[C@H](CCCNC(=N)N)NC(=O)[C@H](CCCNC(=N)N)NC(=O)[C@H](CCCCN)NC(=O)[C@H](CCCCN)NC(=O)[C@H](CCCNC(=N)N)NC(=O)CNC(=O)[C@@H](N)Cc1ccc(O)cc1)C(=O)N[C@@H](CCC(=O)O)C(=O)N[C@@H](CO)C(=O)N[C@@H](CC(=O)O)C(=O)N[C@H](C(=O)O)C(C)C [NERINETIDE]
[22]
  Activity: Active
[10]
  Survival: 85%
[23]
  Survival: 50%
[24]
  Activity: 13.12%
